Experimental findings from ChEMBL document CHEMBL4334438, “Discovery of novel glycogen synthase kinase-3α inhibitors: Structure-based virtual screening, preliminary SAR and biological evaluation for treatment of acute myeloid leukemia” (Eur J Med Chem, 2019) are described below.

The source made the active and inactive calls. No cut-off for these calls is given here.

The inhibition is the percentage by which the read-out fell short of the control. Broadly, the IC50 is the midpoint of a concentration-inhibition curve.

The species named for one series is Homo sapiens. Briefly: Selectivity index, ratio of IC50 for inhibition of human GSK-3beta H350L mutant (2 to end residues) to IC50 for inhibition of human GSK-3alpha S449A mutant (2 to end residues).
Series [1] has as its system Glycogen synthase kinase-3 alpha (Homo sapiens), P49840 [UNDEFINED MUTATION]. Briefly: Inhibition of human GSK-3alpha S449A mutant (2 to end residues) at 10 uM using phospho GS2 peptide as substrate after 40 mins in presence of [gamma-33ATP] by scintillation counting method relative to control.
The next series has as its target GSK-3beta (H350L mutant) (Homo sapiens, UniProt P49841, H350L). Briefly: Inhibition of human GSK-3beta H350L mutant (2 to end residues) at 10 uM using phospho GS2 peptide as substrate after 40 mins by [gamma-33ATP] radiometric assay relative to control. Conditions: human GSK-3beta H350L mutant enzyme (residues 2 to end), probe phospho GS2 peptide.
Series [2] concerns the target Glycogen synthase kinase-3 beta (Homo sapiens, UniProt P49841, H350L). As to the kind of experiment: Inhibition of human GSK-3beta H350L mutant (2 to end residues) at 10 uM using phospho GS2 peptide as substrate after 40 mins by [gamma-33ATP] radiometric assay.
The target of series [3] is T1, Glycogen synthase kinase-3 alpha (Homo sapiens, UniProt P49840). As to the kind of experiment: Inhibition of human GSK-3alpha S449A mutant (2 to end residues) using phospho GS2 peptide as substrate after 40 mins in presence of [gamma-33ATP] by scintillation counting method.
Series [4] deals with HL-60. Briefly: Induction of monocytic differentiation in human HL60 monocytic assessed as increase in CD11c-APC positive cells at 30 uM after 6 days by flow cytometry analysis. The format is functional, cell-based.
Series [5] has as its system HL-60. As to the kind of experiment: Induction of monocytic differentiation in human HL60 cells assessed as increase in CD14-FITC positive cells at 30 uM after 6 days by flow cytometry analysis. Type of series: functional, cell-based. A general note: A flow cytometer gives signals particle by particle.
Series [6] can be described thus: Activation of wnt/beta-catenin signalling pathway in human NB4 cells assessed as stabilization of beta-catenin at 30 uM after 24 hrs by Western blot analysis. The format is cell-based. A general note: Immunoblotting shows a protein as a band on a membrane.
Series [7] has as its system NB-4. Briefly: Induction of monocytic differentiation in human NB4 cells assessed as increase in CD11b-APC-Cy7 positive cells at 30 uM after 6 days by flow cytometry analysis. Type of series: functional, cell-based.
Series [8] concerns HL-60. Briefly: Induction of monocytic differentiation in human HL60 cells assessed as increase in CD11b-APC-Cy7 positive cells at 30 uM after 6 days by flow cytometry analysis. Type of series: functional, cell-based.
Series [9] addresses T2, Glycogen synthase kinase-3 beta (Homo sapiens, UniProt P49841). As to the kind of experiment: Inhibition of human GSK-3beta using YRRAAVPPSPSLSRHSSPHQ(pS)EDEEE as substrate measured in presence of [gamma-33P]ATP by radiometric assay.
Series [10] is described as follows: Activation of wnt/beta-catenin signalling pathway in human HL60 cells assessed as stabilization of beta-catenin at 30 uM after 24 hrs by Western blot analysis. The format is cell-based.
Series [11] concerns HL-60. As to the kind of experiment: Antiproliferative activity against human HL60 cells assessed as reduction in viability at 1 to 30 uM after 3 days by SRB assay. The format is functional, cell-based. (In general: The SRB assay estimates cell density from bound dye.)
Series [12] addresses T1, Glycogen synthase kinase-3 alpha. Briefly: Inhibition of human GSK-3alpha using YRRAAVPPSPSLSRHSSPHQ(pS)EDEEE as substrate measured in presence of [gamma-33P]ATP by radiometric assay.
Series [13] concerns NB-4. As to the kind of experiment: Induction of monocytic differentiation in human NB4 cells assessed as increase in CD14 positive cells at 30 uM after 6 days by FITC staining based flow cytometry analysis. Type of series: functional, cell-based.
The test system of series [14] is NB-4. Briefly: Induction of monocytic differentiation in human NB4 cells assessed as increase in CD11c-APC positive cells at 30 uM after 6 days by flow cytometry analysis. Type of series: functional, cell-based.
In series [15] the test system is NB-4. Briefly: Antiproliferative activity against human NB4 cells assessed as reduction in viability at 1 to 30 uM after 3 days by SRB assay. The format is functional, cell-based.
The target of series [16] is T2, Glycogen synthase kinase-3 beta. Briefly: Inhibition of human GSK-3beta by mobility shift micro-fluidic assay.
Series [17] concerns HL-60. Briefly: Inhibition of colony formation in human HL60 cells at 30 uM preincubated for 72 hrs followed by compound washout and measured after 7 to 10 days. The format is functional, cell-based.
For series [18], the system named is HL-60. As to the kind of experiment: Induction of granulocytic differentiation in human HL60 cells assessed as increase in CD11b-APC-Cy7 positive cells at 10 to 30 uM after 6 days by flow cytometry analysis. Type of series: functional, cell-based.
Series [19] deals with NB-4. As to the kind of experiment: Inhibition of colony formation in human NB4 cells at 30 uM preincubated for 72 hrs followed by compound washout and measured after 7 to 10 days. The format is functional, cell-based.
The test system of series [20] is HL-60. As to the kind of experiment: Induction of granulocytic differentiation in human HL60 granulocytic assessed as increase in CD11c-APC positive cells at 10 to 30 uM after 6 days by flow cytometry analysis. Type of series: functional, cell-based.
Series [21] deals with NB-4. Briefly: Induction of granulocytic differentiation in human NB4 cells assessed as increase in CD11b-APC-Cy7 positive cells at 10 to 30 uM after 6 days by flow cytometry analysis. The format is functional, cell-based.
Series [22] has as its system HL-60. Briefly: Induction of granulocytic differentiation in human HL60 cells assessed as increase in CD14-FITC positive cells at 10 to 30 uM after 6 days by flow cytometry analysis. Type of series: functional, cell-based.
In series [23] the test system is NB-4. As to the kind of experiment: Induction of granulocytic differentiation in human NB4 cells assessed as increase in CD11c-APC positive cells at 10 to 30 uM after 6 days by flow cytometry analysis. The format is functional, cell-based.
Series [24] deals with NB-4. Briefly: Induction of granulocytic differentiation in human NB4 cells assessed as increase in CD14 positive cells at 10 to 30 uM after 6 days by FITC staining based flow cytometry analysis. Type of series: functional, cell-based.

Chain of Glycogen synthase kinase-3 alpha (Homo sapiens), P49840 [UNDEFINED MUTATION] (P49840 whole entry, looked up, stated change not applied, the tested form may be a part): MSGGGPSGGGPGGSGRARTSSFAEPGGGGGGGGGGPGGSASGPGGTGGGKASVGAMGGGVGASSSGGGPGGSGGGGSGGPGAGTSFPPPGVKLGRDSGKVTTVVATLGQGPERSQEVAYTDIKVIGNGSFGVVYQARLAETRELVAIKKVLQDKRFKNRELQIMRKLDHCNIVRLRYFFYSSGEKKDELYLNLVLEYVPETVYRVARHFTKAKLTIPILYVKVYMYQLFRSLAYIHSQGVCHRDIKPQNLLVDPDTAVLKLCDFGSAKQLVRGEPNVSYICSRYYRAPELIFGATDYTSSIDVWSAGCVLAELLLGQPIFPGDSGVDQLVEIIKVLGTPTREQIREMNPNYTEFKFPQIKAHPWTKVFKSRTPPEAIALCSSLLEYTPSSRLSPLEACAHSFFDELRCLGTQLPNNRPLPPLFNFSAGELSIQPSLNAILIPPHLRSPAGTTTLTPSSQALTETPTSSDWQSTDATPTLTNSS
T1 sequence (P49840 whole entry): as the sequence (P49840 whole entry, looked up, stated change not applied, the tested form may be a part) above
Chain of Glycogen synthase kinase-3 beta (Homo sapiens, UniProt P49841, H350L) (P49841 whole entry, looked up, stated change not applied): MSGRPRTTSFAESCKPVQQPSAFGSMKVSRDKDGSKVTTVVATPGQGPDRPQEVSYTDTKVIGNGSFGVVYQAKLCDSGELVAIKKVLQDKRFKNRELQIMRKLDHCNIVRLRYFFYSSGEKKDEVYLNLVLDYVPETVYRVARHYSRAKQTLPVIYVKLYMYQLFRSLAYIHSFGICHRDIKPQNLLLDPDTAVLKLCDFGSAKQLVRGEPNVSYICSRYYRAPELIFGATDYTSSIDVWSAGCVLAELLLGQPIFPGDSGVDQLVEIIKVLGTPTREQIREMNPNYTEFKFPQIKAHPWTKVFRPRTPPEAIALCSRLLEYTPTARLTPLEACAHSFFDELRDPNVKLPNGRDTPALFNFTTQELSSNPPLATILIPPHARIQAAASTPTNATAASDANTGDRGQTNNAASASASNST
Chain of GSK-3beta (H350L mutant) (P49841 whole entry, looked up, stated change not applied, the tested form may be a part): as the sequence (P49841 whole entry, looked up, stated change not applied) above
T2 sequence (P49841 whole entry): as the sequence (P49841 whole entry, looked up, stated change not applied) above

As for `N=C1NC(=O)/C(=C\c2ccc(-c3ccc(Cl)c(Cl)c3)o2)S1`, the Ratio IC50 in the series filed under Homo sapiens is 1.9. Further, in series [1], the inhibition lay within 80 to 81%. For the same compound, at GSK-3beta (H350L mutant), the inhibition at 40 min, 10 µM worked out at 75%. For the same compound, the half-maximal inhibitory concentration (IC50) in series [2] was 576 nM; in [3] it was 300 nM.

On to `c1ccc(-c2noc(CSc3nnc(-c4ccncc4)o3)n2)cc1`, for which the result in the series with HL-60 [4], with HL-60 [5], in the series on NB-4 [7], with HL-60 [8], in the series with HL-60 [11] and with NB-4 [13] was Active. In addition, the result in the series on NB-4 [14] and with NB-4 [15] was Active. The outcome in series [6] and in series [10] was Active. For the same compound, the IC50 in series [9] worked out at 521 nM; in series [12] it was 451 nM.

Consider `CC[C@@]1(c2ccccc2)C2=C(CC(C)(C)CC2=O)Nc2n[nH]cc21`, for which the IC50 in series [16] worked out at 515 nM.

In the case of `CC1=C(/C=C/C(C)=C/C=C/C(C)=C/C(=O)O)C(C)(C)CCC1`, the inhibition result in the series with HL-60 [17] and in the series on NB-4 [19] was “Active” in each case. Besides, the result with HL-60 [18], with HL-60 [20], in the series with NB-4 [21], in the series with HL-60 [22], with NB-4 [23] and with NB-4 [24] was Active. Also, the result with HL-60 [11] and in the series with NB-4 [15] was Active.

For `Cc1ccc(-c2ccc(/C=C3/NC(=S)NC3=O)o2)c(Br)c1`, the Ratio IC50 in the series listed under Homo sapiens is 1.95. Besides, in [1], the inhibition lay in the range of 65 to 90%. Also, on GSK-3beta (H350L mutant), the inhibition at 40 min, 10 µM is 62%. The half-inhibitory concentration (IC50) was 862 nM in series [2] and 440 nM in [3].

With `N=C1NC(=O)/C(=C\c2ccc(-c3ccccc3Cl)o2)S1`, the inhibition in series [1] amounted to 95%. In addition, the inhibition at 40 min, 10 µM on GSK-3beta (H350L mutant) was found to be 95%. Moreover, the concentration for half-maximal inhibition (IC50) in [2] stood at 565 nM; in [3] it was 242 nM.

For `Cc1c(-c2ccc(/C=C3/SC(=N)NC3=O)o2)ccc([N+](=O)[O-])c1C`, the inhibition in series [1] is 64%. This compound also showed an inhibition at 40 min, 10 µM against GSK-3beta (H350L mutant) of 66%. Also, the IC50 in series [2] is 571 nM; in series [3], 227 nM.

Turning to `CN1C(=N)NC(=O)/C1=C\c1ccc(-c2ccc(F)cc2)o1`, the inhibition in series [1] was found to be 81%. At GSK-3beta (H350L mutant), this compound returned an inhibition at 40 min, 10 µM of 78%. The IC50 amounted to 1890 nM in series [2] and 1340 nM in [3].

For the compound `CC(=O)/N=C1/NC(=O)/C(=C\c2ccc(-c3ccc(C(=O)O)cc3)o2)S1`, in series [1], the inhibition turned out to be 86%. This compound also gave an inhibition at 40 min, 10 µM against GSK-3beta (H350L mutant) of 72%. Besides, the values for the IC50 in [2] and in series [3] were 3720 nM and 557 nM, respectively.

In the case of `N=C1NC(=O)/C(=C\c2ccc(-c3ccc(Cl)cc3Cl)o2)S1`, the inhibition in [1] was 82%. On GSK-3beta (H350L mutant), this compound gave an inhibition at 40 min, 10 µM of 93%. Besides, the IC50 turned out to be 1200 nM in series [2] and 1880 nM in series [3].

As for `N=C1NC(=O)/C(=C\c2ccc(-c3cccc(Cl)c3)o2)S1`, the inhibition in [1] is 94%. The inhibition at 40 min, 10 µM on GSK-3beta (H350L mutant) turned out to be 88%. For the same compound, the IC50 in series [2] was determined as 767 nM; in series [3], 282 nM.

Regarding `O=C1NC(=O)C(c2cnc3ccccn23)=C1c1cn2c3c(cc(F)cc13)CN(C(=O)N1CCCCC1)CC2` [LY-2090314], the inhibition in [1] was 99%. In addition, the inhibition at 40 min, 10 µM against GSK-3beta (H350L mutant) stood at 97%. Also, the results for the 50% inhibitory concentration (IC50) in [2] and in series [3] were 1.29 nM and 1.02 nM, respectively.
